Source: the supplement of paper PMC11208160

Assay: recombinant UMI read abundance after kanamycin selection (control-corrected) (log10(CPM+1)); higher = more efficient recombination; extreme values may be limits of the assay; sequences stand for … in AGTGCAGAGAAAATCGGCCAGTTTTCTCTGCCTGCAGTCCGCATGCCGTGGGACCCCTTGGGTTCTAACCTGTTGCCTAGATTTATGCAGCGGACTGCCTTTCTCCCAAAGTGATAAACCGG…AGGTTGGTTTCACT; site = the 11-nt donor
Procedure, shortened: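 Pooled Escherichia coli screen of donor and donor-binding-loop pairs for the IS621 bridge recombinase. Each pair sits with a 12-nt UMI on a plasmid carrying a promoterless kanamycin gene. The library was co-electroporated with a target plasmid encoding a fixed target and T7-inducible recombinase, then plated with IPTG (0.07 mM) plus kanamycin, or unselected, each in two replicates. Recombinant UMIs were PCR-amplified across the donor–target junction and sequenced. Counts became CPM, averaged over replicates, scaled by control-derived factors and reported as log10(CPM+1).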

In order of falling “recombinant UMI read abundance (log10)” value:
1. CAAGAGACATGGACCGGTTTTCCCGGTAATCCGTATTTGCG (site CAAGAGACTCG)  3.11
2. CAAACATCATGGACCGGTTTTCCCGGTAATCCGTATTTGTA (site CAAACATCTTA)  2.53
3. CAACATTCATGGACCGGTTTTCCCGGTAATCCGTATTTGCA (site CAACATTCTTG)  2.5
4. CAACTGACATGGACCGGTTTTCCCGGTAATCCGTATTTGCT (site CAACTGACTAG)  2.48
5. CAAGCAGCATGGACCGGTTTTCCCGGTAATCCGTATTTGTT (site CAAGCAGCTAG)  2.47
6. CAAGCAGCATGGACCGGTTTTCCCGGTAATCCGTATTTGAT (site CAAGCAGCTAT)  2.44
7. CAAGCAGCATGGACCGGTTTTCCCGGTAATCCGTATTTGCT (site CAAGCAGCTAT)  2.19
8. CAAGCAGCATGGACCGGTTTTCCCGGTAATCCGTATTTGCG (site CAAGCAGCTAG)  1.9
9. CAAGCAGCATGGACCGGTTTTCCCGGTAATCCGTATTTGCT (site CAAGCAGCTAG)  1.84
10. CAAGCAGCATGGACCGGTTTTCCCGGTAATCCGTATTTGTT (site CAAGCAGCTAA)  1.83
11. CAAGCAGCATGGACCGGTTTTCCCGGTAATCCGTATTTGCG (site CAAGCAGCTCG)  1.81
12. CAAGCAGCATGGACCGGTTTTCCCGGTAATCCGTATTTGCG (site CAAGCAGCTTG)  1.68
13. CAAGCAGCATGGACCGGTTTTCCCGGTAATCCGTATTTGTT (site CAAGCAGCTAT)  1.65
14. CAACCCGCATGGACCGGTTTTCCCGGTAATCCGTATTTGTT (site CAACCCGCTAA)  1.49
15. CAAGCAGCATGGACCGGTTTTCCCGGTAATCCGTATTTGCT (site CAAGCAACTAG)  1.47
16. CAAGCAGCATGGACCGGTTTTCCCGGTAATCCGTATTTGCT (site CAAGCAGCTGG)  1.4
17. CAAGCAGCATGGACCGGTTTTCCCGGTAATCCGTATTTGCT (site CAAGCAGCTTG)  1.3
18. ATTTATGCATGGACCGGTTTTCCCGGTAATCCGTATTTGGA (site ACTTATGCTTC)  1.06
19. CAAGCAGCATGGACCGGTTTTCCCGGTAATCCGTATTTGAT (site CAAGCAGCTAA)  0.982
20. CAAGCAGCATGGACCGGTTTTCCCGGTAATCCGTATTTGCT (site CAAACAGCTAG)  0.972
21. ATTTACACATGGACCGGTTTTCCCGGTAATCCGTATTTGTT (site ATTTACACTAA)  0.967
22. CAAGCAGCATGGACCGGTTTTCCCGGTAATCCGTATTTGCT (site CAAGCATCTAG)  0.937
23. ATTGTGACATGGACCGGTTTTCCCGGTAATCCGTATTTGGT (site ATTGTGACTAC)  0.925
24. CAAGCAGCATGGACCGGTTTTCCCGGTAATCCGTATTTGCT (site CAAGAAGCTAG)  0.892
25. CAAGCAGCATGGACCGGTTTTCCCGGTAATCCGTATTTGCT (site CAAGCAGCTCG)  0.839
26. CAAGCAGCATGGACCGGTTTTCCCGGTAATCCGTATTTGAT (site CAAGCAGCTAG)  0.784
27. ATTTATGCATGGACCGGTTTTCCCGGTAATCCGTATTTGGA (site AGTTATGCTTC)  0.744
28. CAAGCAGCATGGACCGGTTTTCCCGGTAATCCGTATTTGCT (site CAAGCGGCTAG)  0.638
29. CAAGCAGCATGGACCGGTTTTCCCGGTAATCCGTATTTGCT (site CTAGCAGCTAG)  0.616
30. CAAGCAGCATGGACCGGTTTTCCCGGTAATCCGTATTTGCT (site CACGCAGCTAG)  0.416
31. ATTTATGCATGGACCGGTTTTCCCGGTAATCCGTATTTGGA (site AATTATGCTTC)  0.379
32. ATTGTTCCATGGACCGGTTTTCCCGGTAATCCGTATTTGGT (site TTTGTTCCTAC)  0.331
33. CAAGCGCCATGGACCGGTTTTCCCGGTAATCCGTATTTGAG (site CAAGCGCCTCT)  0.322
34. CAAATCACATGGACCGGTTTTCCCGGTAATCCGTATTTGGG (site CAAATCACTCC)  0.288
35. CAAGCAGCATGGACCGGTTTTCCCGGTAATCCGTATTTGCT (site CAAGCAGCTAA)  0.285
36. CAAGCAGCATGGACCGGTTTTCCCGGTAATCCGTATTTGAT (site CAAGCAGCTAC)  0.271
37. CAAGCGCCATGGACCGGTTTTCCCGGTAATCCGTATTTGTA (site CAAGCGCCTAA)  0.239
38. ATTTATGCATGGACCGGTTTTCCCGGTAATCCGTATTTGGA (site ATTTATGCTTC)  0.0921
39. CAAGCAGCATGGACCGGTTTTCCCGGTAATCCGTATTTGCT (site CAAGCTGCTAG)  0.0658
40. CAAGCAGCATGGACCGGTTTTCCCGGTAATCCGTATTTGCT (site CAAGCCGCTAG)  0.0579
41. CAAGCAGCATGGACCGGTTTTCCCGGTAATCCGTATTTGCT (site CATGCAGCTAG)  0.0527
42. CAAGCCCCATGGACCGGTTTTCCCGGTAATCCGTATTTGTG (site CAAGCCCCTCA)  0.0397
43. CAAGCCCCATGGACCGGTTTTCCCGGTAATCCGTATTTGTG (site CAAGCACCTCA)  0.0304
44. CAAGCAGCATGGACCGGTTTTCCCGGTAATCCGTATTTGCT (site CAAGCAGCTAC)  0.0274
45. CAAATCACATGGACCGGTTTTCCCGGTAATCCGTATTTGGG (site CAATTCACTCC)  0.0243
46. CAACTCACATGGACCGGTTTTCCCGGTAATCCGTATTTGGG (site CAACTCACTCC)  0.0233
47. CAAGCAGCATGGACCGGTTTTCCCGGTAATCCGTATTTGTT (site CAAGCAGCTAC)  0.0209
48. CAAGCCCCATGGACCGGTTTTCCCGGTAATCCGTATTTGTG (site CAAGCTCCTCA)  0.0205
49. CAAATCACATGGACCGGTTTTCCCGGTAATCCGTATTTGGG (site CAACTCACTCC)  0.02
50. CAACTCACATGGACCGGTTTTCCCGGTAATCCGTATTTGGG (site CAAATCACTCC)  0.0187
51. CAAGCGCCATGGACCGGTTTTCCCGGTAATCCGTATTTGAG (site CAAGCGCCTCG)  0.0182
52. CAAGCAGCATGGACCGGTTTTCCCGGTAATCCGTATTTGCT (site GAAGCAGCTAG)  0.0166
53. CAAGCGCCATGGACCGGTTTTCCCGGTAATCCGTATTTGAG (site CAAGCGCCTCA)  0.0151
54. ATTGTGACATGGACCGGTTTTCCCGGTAATCCGTATTTGGT (site ATTGGGACTAC)  0.0143
55. CAAGCCCCATGGACCGGTTTTCCCGGTAATCCGTATTTGTG (site CAAGCGCCTCA)  0.0132
56. CAACTCACATGGACCGGTTTTCCCGGTAATCCGTATTTGGG (site CAATTCACTCC)  0.013
57. CAAGCGCCATGGACCGGTTTTCCCGGTAATCCGTATTTGAG (site CAAGCGCCTCC)  0.0109
58. ATTGTTCCATGGACCGGTTTTCCCGGTAATCCGTATTTGGT (site GTTGTTCCTAC)  0.00837
59. CAAATCACATGGACCGGTTTTCCCGGTAATCCGTATTTGGG (site CAAGTCACTCC)  0.00775
60. CAACTCACATGGACCGGTTTTCCCGGTAATCCGTATTTGGG (site CAAGTCACTCC)  0.00719
61. CAAGCAGCATGGACCGGTTTTCCCGGTAATCCGTATTTGCT (site CCAGCAGCTAG)  0.00438
62. CAAGCAGCATGGACCGGTTTTCCCGGTAATCCGTATTTGCT (site CGAGCAGCTAG)  0.00425
63. CAAGAGCCATGGACCGGTTTTCCCGGTAATCCGTATTTGGG (site CAAGAGCCTCC)  0.00368
64. CAAGCAGCATGGACCGGTTTTCCCGGTAATCCGTATTTGCT (site CAGGCAGCTAG)  0.00336
65. CAAGCAGCATGGACCGGTTTTCCCGGTAATCCGTATTTGCT (site TAAGCAGCTAG)  0.00331
66. ATTGTTCCATGGACCGGTTTTCCCGGTAATCCGTATTTGGT (site ATTGTTCCTAC)  0
67. ATTGTTCCATGGACCGGTTTTCCCGGTAATCCGTATTTGGT (site CTTGTTCCTAC)  0
68. CAAAACACATGGACCGGTTTTCCCGGTAATCCGTATTTGCC (site CAAAACACTGG)  0
69. CAAGCAGCATGGACCGGTTTTCCCGGTAATCCGTATTTGCG (site CAAGCAGCTGG)  0
70. CAAGCAGCATGGACCGGTTTTCCCGGTAATCCGTATTTGCT (site AAAGCAGCTAG)  0
71. CAAGCAGCATGGACCGGTTTTCCCGGTAATCCGTATTTGCT (site CAACCAGCTAG)  0
72. CAAGCAGCATGGACCGGTTTTCCCGGTAATCCGTATTTGCT (site CAAGCACCTAG)  0
73. CAAGCAGCATGGACCGGTTTTCCCGGTAATCCGTATTTGCT (site CAAGGAGCTAG)  0
74. CAAGCAGCATGGACCGGTTTTCCCGGTAATCCGTATTTGCT (site CAAGTAGCTAG)  0
75. CAAGCAGCATGGACCGGTTTTCCCGGTAATCCGTATTTGCT (site CAATCAGCTAG)  0
